The source of these data is patent US7479489B2, “Heterocyclic antiviral compounds” (Roche Palo Alto LLC, priority 2004, dated 2009).

Each structure is given as a SMILES string.

By melting point is commonly meant the temperature of the solid-liquid transition.

For `COc1ccc2c(c1)S(=O)(=O)C=C(c1c(O)c3cc(F)ccc3n(Cc3ccc(F)cc3)c1=O)N2`, the melting point was above 250 °C. For the compound `CC(C)C[C@H]1C(O)=C(C2=CS(=O)(=O)c3ccccc3N2)C(=O)N1Cc1ccc(F)cc1`, the melting point was 160 °C (dec.). The result for `CC[C@H](C)[C@H]1C(O)=C(C2=CS(=O)(=O)c3ccccc3N2)C(=O)N1CCC(C)C` reads 72 to 80 °C.

In turn, `N#Cc1cccc(Cn2c(=O)c(C3=CS(=O)(=O)c4ccccc4N3)c(O)c3cc(F)ccc32)c1` yielded a melting point above 250 °C.

Regarding `CN(c1ccc2c(c1)S(=O)(=O)C=C(c1c(O)c3cc(F)ccc3n(CCC3CC3)c1=O)N2)S(C)(=O)=O`, the melting point is 208 to 212 °C. The compound `CCCS(=O)(=O)Nc1ccc2c(c1)S(=O)(=O)C=C(c1c(O)c3cc(F)ccc3n(CCC3CC3)c1=O)N2.[Na]` registered a melting point above 250 °C. Regarding `CC(C)CCn1c(=O)c(C2=CS(=O)(=O)c3ccccc3N2)c(O)c2cc(F)cnc21`, the melting point lay within 90 to 112 °C. Then `O=c1c(C2=CS(=O)(=O)c3cc(NS(=O)(=O)c4ccccc4)ccc3N2)c(O)c2cc(F)ccc2n1CCC1CC1`, with above 200 °C; and `CC(C)CCN1C(=O)C(C2=CS(=O)(=O)c3ccccc3N2)=C(O)[C@@H]1C1CCCCC1`, with 98 to 100 °C.

Turning to `COc1cc(CN2C(=O)C(C3=CS(=O)(=O)c4cc(NS(C)(=O)=O)ccc4N3)=C(O)[C@@H]2C(C)(C)C)ccc1F`, the melting point lay in the range of 175 to 180 °C. `CC[C@H](C)[C@H]1C(O)=C(C2=CS(=O)(=O)c3ccccc3N2)C(=O)N1Cc1ccccc1` came in with a melting point of 88 to 95 °C. Then `CS(=O)(=O)Nc1ccc2c(c1)S(=O)(=O)C=C(c1c(O)c3cc(F)ccc3n(Cc3ccncc3)c1=O)N2.O=C(O)C(F)(F)F`, with 167 to 169 °C; and `CS(=O)(=O)Nc1ccc2c(c1)S(=O)(=O)C=C(c1c(O)c3cc(F)ccc3n(CC3CCCCC3)c1=O)N2`, with 184 to 203 °C.

`CC(C)(C)[C@H]1C(O)=C(C2=CS(=O)(=O)c3cc(NS(C)(=O)=O)ccc3N2)C(=O)N1CCC1CC1`: the melting point fell in the range of 140 to 145 °C. Turning to `O=c1c(C2=CS(=O)(=O)c3ccccc3N2)c(O)c2cc(Cl)ccc2n1CCC1CC1`, the melting point fell in the range of 227 to 229 °C. For `CC(C)(C)[C@H]1C(O)=C(C2=CS(=O)(=O)c3cc(N)ccc3N2)C(=O)N1CCC1CC1`, the melting point was in the range of 105 to 110 °C. Then `CC(C)(C)[C@H]1C(O)=C(C2=CS(=O)(=O)c3cc(NS(N)(=O)=O)ccc3N2)C(=O)N1Cc1ccc(F)cc1`, with 150 to 156 °C. Turning to `O=c1c(C2=CS(=O)(=O)c3ccccc3N2)c(O)c2cc(F)ccc2n1Cc1ccc(F)c(F)c1`, the melting point fell in the range of 230 to 235 °C.

On to `O=C1C(C2=CS(=O)(=O)c3ccccc3N2)=C(O)[C@H](C2CCCCC2)N1Cc1ccc(F)cc1.[Na]`, for which the melting point is above 250 °C. In turn, `CS(=O)(=O)Nc1ccc2c(c1)S(=O)(=O)C=C(c1c(O)c3cc(F)ccc3n(Cc3ccc(F)c(C(F)(F)F)c3)c1=O)N2` came in with a melting point of 185.8 to 187 °C.

In the case of `CC(C)(C)[C@H]1C(O)=C(C2=CS(=O)(=O)c3cc(N)ccc3N2)C(=O)N1Cc1ccc(F)cc1`, the melting point fell in the range of 146 to 155 °C. In turn, `Cc1noc(C)c1S(=O)(=O)Nc1ccc2c(c1)S(=O)(=O)C=C(c1c(O)c3cc(F)ccc3n(CCC3CC3)c1=O)N2` had a melting point of 150 to 157 °C. The compound `CS(=O)(=O)Nc1ccc2c(c1)S(=O)(=O)C=C(c1c(O)c3cc(F)ccc3n(Cc3ccc(F)c(Cl)c3)c1=O)N2` had a melting point of 166 to 174 °C.

As to `CC(C)CCn1c(=O)c(C2=CS(=O)(=O)c3ccc(C#N)cc3N2)c(O)c2ccccc21`, the melting point is above 250 °C. The result for `N#Cc1cccc(Cn2c(=O)c(C3=CS(=O)(=O)c4ccccc4N3)c(O)c3cc(F)ccc32)c1.[Na]` reads above 250 °C; that for `CC(C)CCN1C(=O)C(C2=CS(=O)(=O)c3ccccc3N2)=C(O)[C@@H]1C(C)(C)C`, 85 to 87 °C; that for `CNC(=O)Nc1ccc2c(c1)S(=O)(=O)C=C(c1c(O)c3cc(F)ccc3n(CCC3CC3)c1=O)N2`, above 220 °C. The result for `O=C1C(C2=CS(=O)(=O)c3ccccc3N2)=C(O)[C@H](C2CCCCC2)N1Cc1ccc(F)cc1` reads 180 °C (dec.); that for `COC(=O)COc1ccc2c(c1)S(=O)(=O)C=C(c1c(O)c3cc(F)ccc3n(Cc3ccc(F)cc3)c1=O)N2`, 200 to 207 °C. The result for `CC(C)CCn1c(=O)c(C2=CS(=O)(=O)c3ccc(Cl)cc3N2)c(O)c2ccccc21` reads 90 to 110 °C; that for `CC(C)CCn1c(=O)c(C2=CS(=O)(=O)c3ccccc3N2)c(O)c2cc(Cl)ccc21`, 194 to 197 °C; that for `CN1C(c2nc(Cc3ccc(F)cc3)c3ccc(F)cc3c2O)=CS(=O)(=O)c2cc(Cl)ccc21`, 254 to 256 °C. `CS(=O)(=O)Nc1ccc2c(c1)S(=O)(=O)C=C(c1c(O)c3cc(F)ccc3n(Cc3ccc(F)c(F)c3)c1=O)N2` showed a melting point of 148.2 to 149.4 °C. Then `CN1C(c2nc(Cc3ccc(F)cc3)c3ccccc3c2O)=CS(=O)(=O)c2cc(Cl)ccc21`, with above 275 °C; and `CS(=O)(=O)Nc1ccc2c(c1)S(=O)(=O)C=C(c1c(O)c3cc(F)ccc3n(CCC3CC3)c1=O)N2.[Na]`, with above 250 °C. The result for `CNC(=O)COc1ccc2c(c1)S(=O)(=O)C=C(c1c(O)c3cc(F)ccc3n(Cc3ccc(F)cc3)c1=O)N2` reads above 240 °C; that for `CN(C)C(=O)COc1ccc2c(c1)S(=O)(=O)C=C(c1c(O)c3cc(F)ccc3n(Cc3ccc(F)cc3)c1=O)N2`, above 250 °C. In turn, `Nc1ccc2c(c1)S(=O)(=O)C=C(c1c(O)c3cc(F)ccc3n(Cc3ccc(F)cc3)c1=O)N2` returned a melting point above 250 °C.

Consider `Cc1ccc2c(c1)c(O)c(C1=CS(=O)(=O)c3ccccc3N1)c(=O)n2Cc1ccc(F)cc1`, for which the melting point was in the range of 247 to 249 °C.

Consider `CC(C)CCn1c(=O)c(C2=CS(=O)(=O)c3cc(NS(C)(=O)=O)ccc3N2)c(O)c2cc(F)ccc21`, for which the melting point was in the range of 205 to 219 °C. The result for `CN(c1ccc2c(c1)S(=O)(=O)C=C(c1c(O)c3cc(F)ccc3n(Cc3ccc(F)cc3)c1=O)N2)S(C)(=O)=O` reads 214 to 218 °C. Regarding `CS(=O)(=O)Nc1ccc2c(c1)S(=O)(=O)C=C(c1c(O)c3cc(F)ccc3n(Cc3cccnc3)c1=O)N2`, the melting point lay within 174 to 186 °C. Take `COc1ccc2c(c1)c(O)c(C1=CS(=O)(=O)c3ccccc3N1)c(=O)n2CCC1CC1`: the melting point was in the range of 220 to 221 °C. Then `CC(C)(C)[C@H]1C(O)=C(C2=CS(=O)(=O)c3cc([N+](=O)[O-])ccc3N2)C(=O)N1Cc1ccc(F)cc1`, with 138 to 147 °C.

Regarding `Nc1ccc2c(c1)S(=O)(=O)C=C(c1c(O)c3ccccc3n(CCC3CC3)c1=O)N2`, the melting point is above 250 °C. The result for `CCCS(=O)(=O)Nc1ccc2c(c1)S(=O)(=O)C=C(c1c(O)c3cc(F)ccc3n(CCC3CC3)c1=O)N2` reads 145 to 150 °C; that for `NC(=O)CCOc1ccc2c(c1)S(=O)(=O)C=C(c1c(O)c3cc(F)ccc3n(CCC3CC3)c1=O)N2`, above 250 °C; that for `O=c1c(C2=CS(=O)(=O)c3cc(NS(=O)(=O)C4CC4)ccc3N2)c(O)c2cc(F)ccc2n1CCC1CC1`, 145 to 155 °C. As to `O=c1c(C2=CS(=O)(=O)c3cc(OCc4ccccc4)ccc3N2)c(O)c2cc(F)ccc2n1Cc1ccc(F)cc1`, the melting point lay in the range of 242 to 244 °C. Then `CC(=O)Nc1ccc2c(c1)S(=O)(=O)C=C(c1c(O)c3cc(F)ccc3n(Cc3ccc(F)cc3)c1=O)N2`, with above 250 °C; and `O=c1c(C2=CS(=O)(=O)c3ccccc3N2)c(O)c2cc(F)ccc2n1Cc1ccc(F)c(F)c1.[Na]`, with 230 to 235 °C; and `Cc1ccc2c(c1)c(O)c(C1=CS(=O)(=O)c3ccccc3N1)c(=O)n2Cc1ccc(F)cc1.[Na]`, with above 250 °C. Then `O=c1c(C2=CS(=O)(=O)c3ccccc3N2)c(O)c2ccccc2n1Cc1ccccc1F`, with above 200 °C.
